Data published in US8114854B2, “Crystalline forms of gemcitabine amide prodrug, compositions and use thereof” (Eli Lilly and Company, priority 2006, dated 2012).

Columns and labels:
[1] = pH Chemical Stability Assay; format: physicochemical; conditions: pH range 1 to 8, after four hours, 40° C., 100 mcg/mL in buffers
Method: pH Chemical Stability Assay
The pH chemical stability is assessed using a semi-automated HPLC technique. Samples of 1-(2,2-difluoro-2-deoxy-β-D-ribofuranosyl)-4-(2-propyl-1-oxopentyl)aminopyrimidin-2-one are prepared at 100 mcg/mL in five buffers representing the pH range throughout the gastrointestinal tract (pH1-pH8). Samples are loaded onto an HPLC autosampler incubated at 40° C. Samples are repeatedly injected on the HPLC at hourly intervals for up to 24 hours with an HPLC column that separates a compound of formula I from gemcitabine. The peak area of 1-(2,2-difluoro-2-deoxy-β-D-ribofuranosyl)-4-(2-propyl-1-oxopentyl)aminopyrimidin-2-one is monitored by UV detection over time and are compared to initial peak areas to determine stability.

[2] = Mouse Pharmacokinetics; format: in vivo, male CD-1 mice
Method: The pharmacokinetic profiles of gemcitabine and 1-(2,2-difluoro-2-deoxy-β-D-ribofuranosyl)-4-(2-propyl-1-oxopentyl)aminopyrimidin-2-one are assessed in male CD-1 mice following oral administration at doses selected to contain approximately 10 mg/kg of gemcitabine. Designated animals (n=3/time point/compound) are sacrificed at 0.08, 0.25, 0.5, 1, 2, and 6 hours after dosing, and systemic blood samples are collected into EDTA-treated tubes containing tetrahydrouridine (0.5 mM final concentration in blood) to inhibit further metabolism of gemcitabine. An additional 3 animals are sacrificed at 0.08 hours for collection of hepatic portal blood. Plasma is isolated by centrifugation and frozen prior to analysis. Plasma concentrations of gemcitabine and prodrugs are determined by LC/MS/MS analysis. Pharmacokinetic parameters are calculated using WinNonlin software (Pharsight Corp., Mountain View, Calif.). Pharmacokinetic parameters of each prodrug are compared to those determined from administration of oral gemcitabine hydrochloride in a similar study design.

[3] = Monkey Pharmacokinetics Assay; format: in vivo; conditions: administered intravenously to cynomolgus monkeys
Method: Monkey Pharmacokinetics Assay
The pharmacokinetic profiles of gemcitabine and a 1-(2,2-difluoro-2-deoxy-β-D-ribofuranosyl)-4-(2-propyl-1-oxopentyl)aminopyrimidin-2-one are assessed in cynomolgus monkeys following oral and intravenous administration in a crossover design. Compounds are administered at doses selected to contain approximately 10 mg/kg of gemcitabine. Blood samples are collected into EDTA-treated tubes containing tetrahydrouridine (0.5 mM final concentration in blood) at designated intervals for up to 48 hours. Animals are pretreated with ranitidine (intravenous, 5 mg/kg) in the oral dosing periods. Plasma is isolated by centrifugation and frozen prior to analysis. Plasma concentrations of gemcitabine and 1-(2,2-difluoro-2-deoxy-β-D-ribofuranosyl)-4-(2-propyl-1-oxopentyl)aminopyrimidin-2-one are determined by LC/MS/MS analysis. Pharmacokinetic parameters are determined using WinNonlin software (Pharsight Corp., Mountain View, Calif.).

[4] = Small Intestine Homogenate Assay (all species); format: in vitro ADME, CD-1 mice, beagle dogs, cynomolgus monkeys, and humans; conditions: 100 uM, SIH 2.5-5 mg/mL protein, pH 7.5
Method: (§1) Small Intestine Homogenate Assay
(§2) To determine the stability of 1-(2,2-difluoro-2-deoxy-β-D-ribofuranosyl)-4-(2-propyl-1-oxopentyl)aminopyrimidin-2-one to enzymatic hydrolysis in the intestine, crude homogenates of small intestinal epithelial cells are prepared from sections of the upper small intestine from CD-1 mice, beagle dogs, cynomolgus monkeys, and humans. Mouse and dog homogenates are prepared from freshly collected tissue, while monkey and human homogenates are prepared from previously frozen tissues. Cells are gently scraped from intestinal segments, pooled, and homogenized in 50 mM acetate buffer using Polytron (PT-10-85). Protein concentrations are determined by standard spectrophotometric techniques. The prepared homogenates are store at −70° C. before using.
(§3) The hydrolytic rates of 1-(2,2-difluoro-2-deoxy-β-D-ribofuranosyl)-4-(2-propyl-1-oxopentyl)aminopyrimidin-2-one in small intestinal homogenates (SIH) is determined by incubating a compound of formula I (100 uM) with SIH (2.5-5 mg/mL of total protein) in acetate at pH 7.5 for up to 6 hours. Concentrations of gemcitabine released via hydrolysis is determined by LC/MS analysis after the reaction is quenched with acetonitrile. […]

[5] = Small Intestine Homogenate Assay, monkey; format: in vitro ADME, cynomolgus monkeys; conditions: 6 hour incubation
Method: as §1, §2, §3

[6] = Small Intestine Homogenate Assay, human; format: in vitro ADME, humans; conditions: 6 hour incubation
Method: as §1, §2, §3

[7] = Liver S9 Hydrolysis Assay (all species); format: in vitro ADME, CD-1 mouse, beagle dog, cynomolgus monkey, and human; conditions: all species described; 10 uM, S9 2 mg/mL protein, pH 8.0
Method: (§4) Liver S9 Hydrolysis Assay
(§5) Hydrolysis of 1-(2,2-difluoro-2-deoxy-β-D-ribofuranosyl)-4-(2-propyl-1-oxopentyl)aminopyrimidin-2-one by liver enzymes is determined by liver hydrolysis assay. Liver homogenates are prepared from CD-1 mouse, beagle dog, cynomolgus monkey, and human livers. Liver tissues are cut into small pieces using scissors, then, homogenized in 50 mM acetate buffer using Polytron (PT-10-85) for 1 min. Post-mitochondrial (S9) fractions are prepared from each by ultracentrifugation at 9,000×g at 4° C. for 10 min. Mouse, dog and monkey liver S9 fractions are prepared from freshly collected tissues, while human liver S9 are prepared from previously frozen tissue. After centrifugation, the supernatant is collected and protein concentrations are determined by standard spectrophotometric techniques. The prepared S9 fractions are store at −70° C. before using.
(§6) The hydrolytic rates of 1-(2,2-difluoro-2-deoxy-β-D-ribofuranosyl)-4-(2-propyl-1-oxopentyl)aminopyrimidin-2-one in liver S9 is determined by incubating compound (10 uM) with S9 (2 mg/mL of total protein) in phosphate buffered saline at pH 8.0 for up to 6 hours. Concentrations of gemcitabine released via hydrolysis are determined by LC/MS analysis after the reaction is quenched with acetonitrile. […]

[8] = Liver S9 Hydrolysis Assay, monkey; format: in vitro ADME, cynomolgus monkey; conditions: monkey liver S9, 6 hour incubation
Method: as §4, §5, §6

[9] = Liver S9 Hydrolysis Assay, human; format: in vitro ADME; conditions: human liver S9, 6 hour incubation
Method: as §4, §5, §6

[10] = test system: Female CD-1 mice; test: 4-Day Mouse Screen (toxicology); format: in vivo; conditions: oral gavage once daily for 4 days, molar equivalent of 8-mg/kg gemcitabine
Method: To evaluate the toxicity produced by orally administered 1-(2,2-difluoro-2-deoxy-β-D-ribofuranosyl)-4-(2-propyl-1-oxopentyl)aminopyrimidin-2-one when administered daily to female […] mice for 4 days, the gastrointestinal toxicity profiles of 1-(2,2-difluoro-2-deoxy-β-D-ribofuranosyl)-4-(2-propyl-1-oxopentyl)aminopyrimidin-2-one is compared with the historical results for gastrointestinal toxicity when gemcitabine is administered orally at 8 mg/kg in a 4-day mouse study.
Female CD-1 mice 5-8 weeks of age are dosed with 1-(2,2-difluoro-2-deoxy-β-D-ribofuranosyl)-4-(2-propyl-1-oxopentyl)aminopyrimidin-2-one by oral gavage. A dose level is chosen to approximate a molar equivalent of 8-mg/kg gemcitabine. A dose volume of 10 mL/kg is used and doses are administered once daily on 4 consecutive days. Necropsy is performed approximately 5-8 hours following the 4th dose.
Clinical signs, clinical chemistry, gross pathology, and limited histopathology (ileum, jejunum, and liver) are evaluated.

[11] = test system: Male and female CD-1 mice; test: 14 Day Mouse Study (toxicology); format: in vivo
Method: A 14-Day Mouse Study is conducted to evaluate whether 1-(2,2-difluoro-2-deoxy-β-D-ribofuranosyl)-4-(2-propyl-1-oxopentyl)aminopyrimidin-2-one produces adverse effects in mice following 14 days of oral gavage dosing and to determine the plasma concentrations of 1-(2,2-difluoro-2-deoxy-β-D-ribofuranosyl)-4-(2-propyl-1-oxopentyl)aminopyrimidin-2-one and its metabolites gemcitabine HCl and deoxydifluorouridine after 1 or 14 doses.
Male and female CD-1 mice 9-12 weeks of age are dosed with 1-(2,2-difluoro-2-deoxy-β-D-ribofuranosyl)-4-(2-propyl-1-oxopentyl)aminopyrimidin-2-one drug by oral gavage. A range of doses is selected in an effort to determine a maximum tolerated dose and dose limiting toxicity. A dose volume of 10 mL/kg is used and doses are administered once daily.
Clinical signs, body weight, food consumption, hematology, clinical chemistry, plasma concentrations of 1-(2,2-difluoro-2-deoxy-β-D-ribofuranosyl)-4-(2-propyl-1-oxopentyl)aminopyrimidin-2-one and metabolites gemcitabine HCl and deoxydifluorouridine, and pathology (including gross pathology, organ weights, and histopathology) are evaluated.

[12] = test system: Male and female beagle dogs; test: 7-Day Dog Study (toxicology); format: in vivo; conditions: oral via capsule once daily for 7 days
Method: To evaluate the toxicity profile of 1-(2,2-difluoro-2-deoxy-β-D-ribofuranosyl)-4-(2-propyl-1-oxopentyl)aminopyrimidin-2-one when administered to Beagle dogs for 7 days, and to determine the plasma concentrations of 1-(2,2-difluoro-2-deoxy-β-D-ribofuranosyl)-4-(2-propyl-1-oxopentyl)aminopyrimidin-2-one and metabolites gemcitabine HCl and deoxydifluorouridine after 1 or 7 doses, a 7-day dog study is conducted.
Male and female beagle dogs 6-48 months of age are dosed orally via capsule with 1-(2,2-difluoro-2-deoxy-β-D-ribofuranosyl)-4-(2-propyl-1-oxopentyl)aminopyrimidin-2-one. A range of doses is selected in an effort to determine a maximum tolerated dose and dose limiting toxicity. A dose volume of 1 mL/kg is used and doses are administered once daily.
Clinical signs, body weight, food consumption, body temperature, hematology (including coagulation), clinical chemistry, urinalysis, plasma concentrations of 1-(2,2-difluoro-2-deoxy-β-D-ribofuranosyl)-4-(2-propyl-1-oxopentyl)aminopyrimidin-2-one and its metabolites gemcitabine HCl and deoxydifluorouridine, and pathology (including gross pathology, organ weights, and histopathology) were evaluated.

[13] = test system: HCT-116 colon tumor cells; test: In Vivo Assay, HCT-116 colon tumor xenograft; conditions: oral gavage
Method: HCT-116 colon tumor cells are grown in vitro under standard tissue culture conditions, harvested, washed, and 5×10^6 cells (1:1 suspension in Matrigel, Collaborative Biomedical Products, Inc) are injected subcutaneously in the rear flank of female nude mice (Charles River, CD1 nu/nu, 24-27 g, irradiated with 450 Rads within 24 h of implantation). Tumors are allowed to grow to ˜100 mm^3 before initiation of therapy. Vehicle control, 1-(2,2-difluoro-2-deoxy-β-D-ribofuranosyl)-4-(2-propyl-1-oxopentyl)aminopyrimidin-2-one or gemcitabine-HCl at various dose levels are administered to the mice by oral gavage (10 ml/kg volume) at the times indicated in the individual experiments. Compounds are administered either daily for fourteen days, every other day for a total of seven doses, or every third day for a total of four doses. […] Tumor size is determined by caliper measurements and tumor volume (mm^3) is estimated from the formula l×w^2×0.536, where l is the larger and w is the smaller of perpendicular diameters. All data (tumor measurements and animal weights) are captured twice-weekly beginning with the start of therapy and analyzed using a computer based tumor measurement system.

[14] = test system: mice; conditions: single oral (gavage) dose of 167, 333, or 500 mg/kg; cited from earlier work
[15] = test system: mice; conditions: comparable exposures via intravenous dosing; cited from earlier work
[16] = result of first pass metabolism; cited from earlier work

Row | SMILES | degraded to gemcitabine [1] | concentrations of intact prodrug in hepatic portal plasma ([2]; 0.08 hours after oral dosing, CD-1 mice) | hydrolysis in vivo to release gemcitabine ([2]; administered orally to CD-1 mice, dose containing approximately 10 mg/kg of gemcitabine) | plasma exposure to gemcitabine compared to direct oral administration of gemcitabine hydrochloride ([2]; oral, CD-1 mice) | hydrolysis in vivo to release gemcitabine [3] | rate of hydrolysis in small intestine homogenate [4] | total compound converted to gemcitabine [5] | total compound converted to gemcitabine [6] | hydrolysis in liver S9 [7] | total compound converted to gemcitabine [8] | total compound converted to gemcitabine [9] | severity of atrophic intestinal changes or enteropathy versus gemcitabine HCl [10] | systemic gemcitabine exposure from the prodrug versus gemcitabine HCl on a molar equivalent basis ([11]; 14-day oral gavage study) | enteropathy versus gemcitabine HCl on a molar equivalent basis ([11]; 14 days of oral gavage dosing) | hematotoxicity and other toxicities, including GI toxicity [12] | overall toxicity versus equivalent amount of gemcitabine-HCl ([13]; HCT-116 tumor-bearing nude mice) | antitumor efficacy versus equivalent dose of gemcitabine-HCl ([13]; HCT-116 tumors in nude mice) | adverse dose-limiting intestinal lesions [14] | death or gastrointestinal toxicity [15] | oral bioavailability [16]
1 | CCCC(CCC)C(=O)Nc1ccn([C@@H]2O[C@H](CO)[C@@H](O)C2(F)F)c(=O)n1 [1-(2,2-difluoro-2-deoxy-β-D-ribofuranosyl)-4-(2-propyl-1-oxopentyl)aminopyrimidin-2-one] | Less than 25% | relatively high concentrations | extensively hydrolyzed | increased | extensively hydrolyzed | slow rate of hydrolysis | less than 3% | less than 3% | hydrolyzed | approximately 35% | approximately 35% | significant reduction | approximately twice | less enteropathy | consistent with what has been previously described for parenteral gemcitabine | less overall toxicity | comparable |  |  | 
2 | Nc1ccn([C@@H]2O[C@H](CO)[C@@H](O)C2(F)F)c(=O)n1 [gemcitabine, 2′,2′-difluoro-2′-deoxycytidine] |  |  |  |  |  |  |  |  |  |  |  |  |  |  |  |  |  | moderate-to-marked loss of mucosal epithelium (atrophic enteropathy) | did not result in death or gastrointestinal toxicity | poor oral bioavailability
